Measurements: patent US20140038847A1, “SCREENING AND CULTURING DEVICE AND METHODS FOR THE USE THEREOF” (Microstem, Inc., priority 2010, published 2014)

Legend:
[1] = tested on: MCF-7 breast carcinoma cells; assay: Paclitaxel multiparameter cytotoxicity in MCF-7 cells attached to ECM spots of the array (Cellomics Multiparameter Cytotoxicity 3 kit); assay type: cell-based, human; details: cells grown on matrix of collagen IV, collagen V and fibronectin in equal concentrations, compared with fibronectin alone
Experimental: The human breast adenocarcinoma cell line MCF-7 was purchased from American Type Culture Collection (ATCC). Cells were cultured in minimal essential medium (DMEM), supplemented with 10% FBS and antibiotics (100 IU/ml of penicillin G), then incubated at 37° C. in a humidified atmosphere of 5% CO2. […] MCF-7 cells were seeded into 4 well plates containing an exemplary microarray slide according to the present invention at a density of about 0.1×10^6 cells/ml in 5 ml complete medium (0.5×10^6 cells/slide, total 8 slides) and cultured at 37° C. After 7 h of incubation, non adherent cells were removed and the slide was washed 1× with complete culture medium. New media with varying concentrations of paclitaxel was added ranging from 0 nM-3 uM (0 nM, 3 nM, 10 nM, 30 nM, 100 nM, 300 nm, 1 μM, 3 μM). Cells were incubated for about 16 h at 37° C. Slides were processed using the protocol provided by the manufacturer of the Cellomics Multiparameter Cytotoxicity 3 kit, employing the reagents included in the kit. […] The resulting slides were kept protected from light and analyzed within about 24 h. […] Compartmental Analysis BioApplication (Cellomics) software was used to quantify fluorescent signal. […]

[2] = tested on: A549 lung cancer cell line; assay: TGF-β-induced epithelial mesenchymal transition of A549 cells on MicroMatrix ECM array (e-cadherin / vimentin staining); assay type: cell-based, human
Experimental: Packages containing products which embody present invention (MicroMatrix™ slides) were removed from −20° C. and brought to room temperature (RT). Using sterile techniques, 4 MicroMatrix™ slides were removed from packaging and put into a 4-chamber slide tray. A549 cells (ATCC, Rockville, Md.) were cultured according to manufacturer's protocol in complete medium of DMEM containing 10% FBS and antibiotics (Life Technology, CA) in standard tissue culture treated T-75 flasks (Corning).
Cells were trypsinized with EDTA for 5 minutes and neutralized with 10 ml of complete medium. Neutralized cell suspensions were put into a 50 ml conical tube and centrifuged for 6 minutes at 1100 rpm. Five milliliters of complete medium containing 5×10^5 cells was added to each of 4 identical MicroMatrix™ slides in the slide tray. The tray was placed in a 37° C. incubator with 5% CO2 and cells were allowed to attach to ECM spots overnight (14 hrs).
Unattached cells and media were aspirated from the slides and 5 ml of media containing 1% FBS with or without 5 ng/ml of TGF-β were added to each chamber. After 24 hrs, media was aspirated from the chamber and 5 ml of 4% para-formaldehyde (PFA) in 1×PBS (fixation buffer) was added to each slide for 10 minutes at RT.
Fixation buffer was aspirated from chambers and fixed slides were stained for nuclei, e-cadherin and vimentin expression. Briefly, mouse anti-human e-cadherin antibody (BD, CA) and rabbit anti-human vimentin (Cell Signaling Technology) antibody were added to each of 4 slides at a 1:100 dilution in PBS at RT for 3 hours. […]
Cell adhesion was determined by the number of nuclei present on a spot. […] Cells adhered to ECM compositions that met the 25 cell/spot criteria were then analyzed for e-cadherin and vimentin expression using the same Bioapplication software. A ring was formed around segmented objects (nuclei) and fluorescence measurements for secondary channels were captured. Average intensities of e-cadherin and vimentin were calculated and normalized by cells per spot.

[3] = A549 on certain combinations of ECMs, 24 hrs, 5 ng/ml TGF-β, compared with other ECM compositions

CC(=O)O[C@H]1C(=O)[C@@]2(C)[C@H]([C@H](OC(=O)c3ccccc3)[C@]3(O)C[C@H](OC(=O)[C@H](O)[C@@H](NC(=O)c4ccccc4)c4ccccc4)C(C)=C1C3(C)C)[C@]1(OC(C)=O)CO[C@@H]1C[C@@H]2O [paclitaxel, Paclitaxel] was tested, and the “cytotoxic response of MCF-7 cells to paclitaxel (same cytotoxicity parameters)” value [1] was “maintain a resistance to paclitaxel”.
With TGF-β the “e-cadherin expression (epithelial marker)” value [2, 3] was “decreases in e-cadherin”, the “vimentin expression (mesenchymal marker)” value [2, 3] was “increases in vimentin expression” and the A549 cell attachment ([2]; certain ECM compositions that promote attachment without TGF-β, upon addition of TGF-β) was “cell detachment is observed”.
